For one assay, the target named is T1, PDE4B (Homo sapiens, UniProt Q07343).
T1 construct: purchased BPS Bioscience, San Diego
The experiment in a line: In vitro PDE4 inhibition study, PDE4B (BPS Bioscience). Conditions: for inhibition at 10 µM: values in parentheses. The format is binding. The method, then: (§1) The IC50 values of Compound 8 on PDE4 isoforms were determined by BPS Bioscience, San Diego. In brief, coat proteins (PDE4 isoforms) were added into the plate in a volume of 50 μl (2-5 ng/μl) at 4° C. overnight. The next day, Compound 8 was added to the coated plate with varying concentrations followed by addition of the corresponding biotinylated binding partner. The reaction was incubated for 2 hours at room temperature. Binding assays were performed in duplicate at each concentration and the plates were read by using Synergy 2 BioTek plate reader. The luminescence data were analyzed using the Graphpad Prism. […] Data for a reference compounds or antibodies are included as a control for inhibition. “ND” indicates the compound was not tested.

For the next assay, the target named is T2, PDE4D (Homo sapiens, UniProt Q08499).
T2 construct: purchased BPS Bioscience, San Diego
In words: In vitro PDE4 inhibition study, PDE4D (BPS Bioscience). Conditions: values in parentheses. The format is binding. The method, then: as §1

pIC50: −log10 of the molar value.

T2 sequence (Q08499 whole entry): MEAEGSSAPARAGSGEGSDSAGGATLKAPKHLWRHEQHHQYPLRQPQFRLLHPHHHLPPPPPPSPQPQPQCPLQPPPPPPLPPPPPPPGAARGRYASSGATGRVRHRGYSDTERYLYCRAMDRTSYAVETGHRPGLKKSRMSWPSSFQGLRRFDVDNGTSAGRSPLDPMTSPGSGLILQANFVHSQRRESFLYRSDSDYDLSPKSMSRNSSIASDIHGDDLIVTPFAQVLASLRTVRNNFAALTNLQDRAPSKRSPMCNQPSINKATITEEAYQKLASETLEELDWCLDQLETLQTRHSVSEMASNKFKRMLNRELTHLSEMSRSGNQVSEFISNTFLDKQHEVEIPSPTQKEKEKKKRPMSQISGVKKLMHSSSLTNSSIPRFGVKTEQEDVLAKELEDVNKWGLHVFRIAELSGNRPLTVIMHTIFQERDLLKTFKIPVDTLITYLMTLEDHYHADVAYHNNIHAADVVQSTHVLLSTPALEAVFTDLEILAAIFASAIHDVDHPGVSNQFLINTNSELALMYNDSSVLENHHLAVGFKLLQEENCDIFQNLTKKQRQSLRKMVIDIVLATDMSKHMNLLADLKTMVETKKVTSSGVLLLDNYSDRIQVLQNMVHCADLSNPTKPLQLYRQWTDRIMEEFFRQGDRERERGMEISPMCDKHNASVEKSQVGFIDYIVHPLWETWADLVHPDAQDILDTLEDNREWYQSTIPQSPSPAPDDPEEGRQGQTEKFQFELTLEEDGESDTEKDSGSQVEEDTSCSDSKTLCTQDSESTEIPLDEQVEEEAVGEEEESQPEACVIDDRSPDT
T1 sequence (Q07343 whole entry): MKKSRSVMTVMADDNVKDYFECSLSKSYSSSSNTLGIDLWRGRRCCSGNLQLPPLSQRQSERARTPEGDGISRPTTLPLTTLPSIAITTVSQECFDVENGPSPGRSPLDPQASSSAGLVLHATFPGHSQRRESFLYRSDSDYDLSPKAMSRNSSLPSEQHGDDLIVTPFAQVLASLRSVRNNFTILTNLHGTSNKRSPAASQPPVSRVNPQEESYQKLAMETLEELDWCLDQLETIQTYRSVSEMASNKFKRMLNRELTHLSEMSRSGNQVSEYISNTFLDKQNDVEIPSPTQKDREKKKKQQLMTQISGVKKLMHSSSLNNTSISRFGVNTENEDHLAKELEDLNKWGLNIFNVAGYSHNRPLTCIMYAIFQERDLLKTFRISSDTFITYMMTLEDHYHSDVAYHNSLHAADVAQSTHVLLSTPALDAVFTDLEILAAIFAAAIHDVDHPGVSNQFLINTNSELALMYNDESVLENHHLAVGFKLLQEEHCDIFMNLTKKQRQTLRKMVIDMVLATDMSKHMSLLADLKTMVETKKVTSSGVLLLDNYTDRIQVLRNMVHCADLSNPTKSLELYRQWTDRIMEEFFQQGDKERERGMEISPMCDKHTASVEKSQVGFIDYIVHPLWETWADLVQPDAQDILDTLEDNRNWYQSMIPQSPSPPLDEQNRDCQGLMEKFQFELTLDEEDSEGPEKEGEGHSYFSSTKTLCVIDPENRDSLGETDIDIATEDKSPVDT

In general, pIC50 refers to −log10 of the IC50, conventionally taken in molar units. A word on the inhibition: it is the relative decrease from the control value, in per cent. Take `O=C(NC1CCC1)c1cc2cccnc2n1-c1ccc(Cl)c(Cl)c1` [Compound 2, N-cyclobutyl-1-(3,4-dichlorophenyl)-1H-pyrrolo[2,3-b]pyridine-2-carboxamide]: the negative logarithm of the IC50 (pIC50) on PDE4B was 5.96. For the same compound, the inhibition at 10 µM at PDE4D is 24%. In the same order, the values of `O=C(NC1CC(F)C1)c1cc2cccnc2n1-c1ccc(Cl)c(Cl)c1` (stereo not drawn) [Compound 3, 1-(3,4-Dichlorophenyl)-N-(3-fluorocyclobutyl)-1H-pyrrolo[2,3-b]pyridine-2-carboxamide] are 6.22 and 36%. With `O=C(NC1CC(F)(F)C1)c1cc2cccnc2n1-c1ccc(Cl)c(Cl)c1` [Compound 4, 1-(3,4-dichlorophenyl)-N-(3,3-difluorocyclobutyl)-1H-pyrrolo[2,3-b]pyridine-2-carboxamide], the inhibition at 10 µM worked out at 23% at PDE4B and 11.6% on PDE4D.

In the case of `O=C(NCc1ccco1)c1cc2cccnc2n1-c1ccc(Cl)c(Cl)c1` [Compound 5, 1-(3,4-dichlorophenyl)-N-(furan-2-ylmethyl)-1H-pyrrolo[2,3-b]pyridine-2-carboxamide], the figures for the inhibition at 10 µM at PDE4B and at PDE4D were 70% and 52%, respectively. With `O=C(c1cc2cccnc2n1-c1ccc(Cl)c(Cl)c1)N1CCC1` [Compound 6, Azetidin-1-yl(1-(3,4-dichlorophenyl)-1H-pyrrolo[2,3-b]pyridin-2-yl)methanone], on PDE4B, the negative logarithm of the IC50 (pIC50) was 6.96. With `O=C(c1cc2cccnc2n1-c1ccc(Cl)c(Cl)c1)N1CC(F)C1` [Compound 7, (1-(3,4-dichlorophenyl)-1H-pyrrolo[2,3-b]pyridin-2-yl)(3-fluoroazetidin-1-yl)methanone], the pIC50 at PDE4B is 6.64. Moreover, at PDE4D, the inhibition at 10 µM was found to be 77%. Consider `O=C(c1cc2cccnc2n1-c1ccc(Cl)c(Cl)c1)N1CCCC2(CCO2)C1` (stereo not drawn) [Compound 10, (1-(3,4-dichlorophenyl)-1H-pyrrolo[2,3-b]pyridin-2-yl)(1-oxa-6-azaspiro[3.5]nonan-6-yl)methanone], for which the inhibition at 10 µM worked out at 73% on PDE4B and 39% at PDE4D. For `O=C(c1cc2cccnc2n1-c1ccc(Cl)c(Cl)c1)N1CCS(=O)(=O)CC1` [Compound 11, (1-(3,4-dichlorophenyl)-1H-pyrrolo[2,3-b]pyridin-2-yl)(1,1-dioxidothiomorpholino) methanone] the same measures were 39% and 17%. In the same order, the values of `O=C(c1cc2cccnc2n1-c1ccc(Cl)c(Cl)c1)N1CCC2(CCC2)CC1` [Compound 12, (1-(3,4-dichlorophenyl)-1H-pyrrolo[2,3-b]pyridin-2-yl)(7-azaspiro[3.5]nonan-7-yl) methanone] are 50% and 29%. Turning to `O=C(c1cc2cccnc2n1-c1ccc(Cl)c(Cl)c1)N1CCC2(CCC2)C1` [Compound 13, (1-(3,4-dichlorophenyl)-1H-pyrrolo[2,3-b]pyridin-2-yl)(6-azaspiro[3.4]octan-6-yl) methanone], the pIC50 on PDE4B is 6.01.

Take `O=C(c1cc2cccnc2n1-c1ccc(Cl)c(Cl)c1)N1CC2(CCNCC2)C1` [Compound 15, (1-(3,4-dichlorophenyl)-1H-pyrrolo[2,3-b]pyridin-2-yl)(2,7-diazaspiro[3.5]nonan-2-yl) methanone]: the figures for the inhibition at 10 µM at PDE4B and on PDE4D were 33% and 13%, respectively. For the compound `Cc1ccc(-n2c(C(=O)NC3CCC3)cc3cccnc32)cc1Cl` [Compound 17, 1-(3-chloro-4-methylphenyl)-N-cyclobutyl-1H-pyrrolo[2,3-b]pyridine-2-carboxamide], the pIC50 at PDE4B was 5.64. The inhibition at 10 µM at PDE4D stood at 43%.

Consider `Cc1ccc(-n2c(C(=O)N3CC(F)C3)cc3cccnc32)cc1Cl` [Compound 20, (1-(3-chloro-4-methylphenyl)-1H-pyrrolo[2,3-b]pyridin-2-yl)(3-fluoroazetidin-1-yl) methanone], for which the negative-log IC50 (pIC50) at PDE4B is 6.04. The inhibition at 10 µM at PDE4D came out at 60%. For the compound `O=C(NC1CC1)c1cc2cccnc2n1-c1cc(F)c(Cl)c(F)c1` [Compound 21, 1-(4-chloro-3,5-difluorophenyl)-N-cyclopropyl-1H-pyrrolo[2,3-b]pyridine-2-carboxamide], the negative-log IC50 (pIC50) on PDE4B is 5.85. Further, the inhibition at 10 µM at PDE4D turned out to be 53%. As for `O=C(NC1CCC1)c1cc2cccnc2n1-c1cc(F)c(Cl)c(F)c1` [Compound 22, 1-(4-chloro-3,5-difluorophenyl)-N-cyclobutyl-1H-pyrrolo[2,3-b]pyridine-2-carboxamide], the negative logarithm of the IC50 (pIC50) on PDE4B is 5.89. In addition, at PDE4D, the inhibition at 10 µM stood at 10.7%. For `O=C(c1cc2cccnc2n1-c1cc(F)c(Cl)c(F)c1)N1CC(F)C1` [Compound 25, (1-(4-chloro-3,5-difluorophenyl)-1H-pyrrolo[2,3-b]pyridin-2-yl)(3-fluoroazetidin-1-yl) methanone] the same measures were 6.68 and 62%. With `N#Cc1c(F)cc(-n2c(C(=O)NC3CC3)cc3cccnc32)cc1F` [Compound 26, 1-(4-cyano-3,5-difluorophenyl)-N-cyclopropyl-1H-pyrrolo[2,3-b]pyridine-2-carboxamide], the pIC50 on PDE4B is 5.85. Besides, on PDE4D, the inhibition at 10 µM turned out to be 18.5%. For `N#Cc1c(F)cc(-n2c(C(=O)NC3CCC3)cc3cccnc32)cc1F` [Compound 27, 1-(4-cyano-3,5-difluorophenyl)-N-cyclobutyl-1H-pyrrolo[2,3-b]pyridine-2-carboxamide] the same measures were 5.74 and 16.6%. Consider `N#Cc1c(F)cc(-n2c(C(=O)NC3CC(F)C3)cc3cccnc32)cc1F` (stereo not drawn) [Compound 28, 1-(4-cyano-3,5-difluorophenyl)-N-(3-fluorocyclobutyl)-1H-pyrrolo[2,3-b]pyridine-2-carboxamide], for which the values for the inhibition at 10 µM on PDE4B and on PDE4D were 58% and 12.1%, respectively. For `N#Cc1c(F)cc(-n2c(C(=O)NC3CC(F)(F)C3)cc3cccnc32)cc1F` [Compound 29, 1-(4-cyano-3,5-difluorophenyl)-N-(3,3-difluorocyclobutyl)-1H-pyrrolo[2,3-b]pyridine-2-carboxamide] the same measures were 47% and 18%.

With `N#Cc1c(F)cc(-n2c(C(=O)N3CC(F)C3)cc3cccnc32)cc1F` [Compound 30, 2,6-difluoro-4-(2-(3-fluoroazetidine-1-carbonyl)-1H-pyrrolo[2,3-b]pyridin-1-yl)benzonitrile], on PDE4B, the negative-log IC50 (pIC50) was 6.37. In addition, the inhibition at 10 µM at PDE4D was determined as 66%. For `O=C(NC1CC1)c1cc2cccnc2n1-c1ccc(Cl)cc1` [Compound 31, 1-(4-chlorophenyl)-N-cyclopropyl-1H-pyrrolo[2,3-b]pyridine-2-carboxamide] the same measures were 5.54 and 10.1%.

Take `O=C(NC1CCC1)c1cc2cccnc2n1-c1ccc(Cl)cc1` [Compound 32, 1-(4-chlorophenyl)-N-cyclobutyl-1H-pyrrolo[2,3-b]pyridine-2-carboxamide]: on PDE4B, the pIC50 is 5.30. Besides, on PDE4D, the inhibition at 10 µM was found to be 28.2%.

Take `O=C(NC1CC1)c1cc2cccnc2n1-c1ccc(Cl)c(F)c1` [Compound 33, 1-(4-chloro-3-fluorophenyl)-N-cyclopropyl-1H-pyrrolo[2,3-b]pyridine-2-carboxamide]: the negative-log IC50 (pIC50) on PDE4B was 6.01. At PDE4D, the inhibition at 10 µM came out at 24%. Consider `O=C(NC1CCC1)c1cc2cccnc2n1-c1ccc(Cl)c(F)c1` [Compound 34, 1-(4-chloro-3-fluorophenyl)-N-cyclobutyl-1H-pyrrolo[2,3-b]pyridine-2-carboxamide], for which the negative-log IC50 (pIC50) at PDE4B was 5.89. In addition, on PDE4D, the inhibition at 10 µM was 39%. In the same order, the values of `O=C(c1cc2cccnc2n1-c1ccc(Cl)c(F)c1)N1CC(F)C1` [Compound 37, (1-(4-chloro-3-fluorophenyl)-1H-pyrrolo[2,3-b]pyridin-2-yl)(3-fluoroazetidin-1-yl) methanone] are 6.21 and 71%. As for `COc1ccc(-n2c(C(=O)N3CC(F)C3)cc3cccnc32)cc1` [Compound 38, (3-fluoroazetidin-1-yl)(1-(4-methoxyphenyl)-1H-pyrrolo[2,3-b]pyridin-2-yl)methanone], the results for the inhibition at 10 µM on PDE4B and at PDE4D were 67% and 37%, respectively. On to `COc1ncc(-n2c(C(=O)N3CC(F)C3)cc3cccnc32)cc1Cl` [Compound 39, (1-(5-chloro-6-methoxypyridin-3-yl)-1H-pyrrolo[2,3-b]pyridin-2-yl)(3-fluoroazetidin-1-yl) methanone], for which, on PDE4B, the pIC50 is 6.31. Turning to `O=C(c1cc2cccnc2n1-c1ccnc(F)c1)N1CC(F)C1` [Compound 41, (3-fluoroazetidin-1-yl)(1-(2-fluoropyridin-4-yl)-1H-pyrrolo[2,3-b]pyridin-2-yl)methanone], the pIC50 on PDE4B was 6.01.

Regarding `COc1c(F)cc(-n2c(C(=O)N3CC(F)C3)cc3cccnc32)cc1F` [Compound 42, (1-(3,5-difluoro-4-methoxyphenyl)-1H-pyrrolo[2,3-b]pyridin-2-yl)(3-fluoroazetidin-1-yl) methanone], the negative-log IC50 (pIC50) at PDE4B is 6.39. On to `O=C(c1cc2cccnc2n1Cc1ccc(Cl)c(Cl)c1)N1CC(F)C1` [Compound 43, (1-(3,4-dichlorobenzyl)-1H-pyrrolo[2,3-b]pyridin-2-yl)(3-fluoroazetidin-1-yl)methanone], for which the inhibition at 10 µM at PDE4B stood at 72%; at PDE4D, 58%.

The values are drawn from patent US11180499B2, “Phosphodiesterase inhibitors” (BOARD OF REGENTS OF THE UNIVERSITY OF NEBRASKA, priority 2018, dated 2021).
